# Patent US4560692A, “4-Piperidino-2-phenylquinolines” (Hoffmann-La Roche Inc., priority 1984, dated 1985)
# Read-outs that look alike come from different tables or passages of the source.
# Tests used:
# [1] = target: ^3 H-Diazepam binding, rat brain cortical fragments; assay: ^3 H-Diazepam binding assay; details: inhibition of ^3 H-Diazepam binding by 50%
# Protocol: Rat brain cortical fragments are prepared and the binding procedures performed as described by Mohler and Okada (Life Sciences, 20, 2101, 1977) except that Tris buffer is substituted for Krebs buffer. Drugs are assayed in triplicate. Radioactivity is measured by liquid scintillation counting.
# [2] = system: convulsive seizures (Ptz. administered intraveneously); assay: Intravenous antipentylenetetrazole (Ptz.) test, oral compound, protection against convulsions; type: in vivo, Male CF-1 mice; details: Mus musculus
# Protocol: (§1) Utilizing the procedures given below, the compounds of formula I synthesized in the previous examples were assayed for antimetrezol activity and ^3 H-diazepam binding activity. The 24 hour acute toxicity (LD-50, expressed as mg/kg) of each of these compounds was also determined in the standard fashion.
# Male CF-1 mice, 45-54 days old, housed in the same facility for one week and food-deprived for about 24 hours are used in this test. […] One hour later, Ptz. is administered intraveneously at 70 mg/kg (convulsant dose 100) and animals are observed 30 seconds for protection against convulsions. If the compound is active orally 8 animals are used per dose level. […] Calculations: The ED50 values and 95% fiducial limits are calculated using a computer program based on the method of D. J. Finney ("Probit Analysis", Cambridge University Press, Cambridge, England, 1971).
# [3] = 24 hour acute toxicity (LD-50); details: in vivo, ">" = not tested above indicated value
# Protocol: as §1
# [4] = compounds of formula I, read-out: ^3 H-Dz. IC50
# [5] = compounds of formula I, oral, 1 h before Ptz. 70 mg/kg i.v., mice, ">" = not tested above indicated value, read-out: Ptz. ED50
# [6] = po, 1 h, read-out: ED50 (95% Fiducial Limits)
Structure (SMILES),"IC50 [1, 4]","ED50 [2, 5]",LD50 at 24 h [3],"ED50 [2, 6]","IC50 ([1]; standard drugs, read-out: IC50)"
NC(=O)C1CCN(c2cc(-c3ccc(F)cc3)nc3ccc(Cl)cc23)CC1 [1-[6-Chloro-2-(4-fluorophenyl)-4-quinolinyl]-4-piperidinecarboxamide],28 nM,29 mg/kg,> 1000 mg/kg,–,–
NC(=O)C1CCN(c2cc(-c3ccc(Cl)cc3)nc3ccc(F)cc23)CC1 [1-[2-(4-Chlorophenyl)-6-fluoro-4-quinolinyl]-4-piperidinecarboxamide],36 nM,15 mg/kg,> 1000 mg/kg,–,–
NC(=O)C1CCN(c2cc(-c3ccc(Br)cc3)nc3ccccc23)CC1 [1-[2-(4-Bromophenyl)-4-quinolinyl]-4-piperidinecarboxamide],35 nM,41 mg/kg,> 1000 mg/kg,–,–
CNC(=O)C1CCN(c2cc(-c3ccc(F)cc3)nc3ccc(F)cc23)CC1 [1-6-Fluoro-2-(4-fluorophenyl)-4-quinolinyl)]-N-methyl-4-piperidinecarboxamide],1.8 nM,13 mg/kg,> 1000 mg/kg,–,–
Cc1ccc(-c2cc(N3CCC(C(N)=O)CC3)c3cc(Cl)ccc3n2)cc1 [1-[6-Chloro-2-(4-methylphenyl)-4-quinolinyl]-4-piperidinecarboxamide],60 nM,> 100 mg/kg,> 1000 mg/kg,–,–
Cc1ccc2nc(-c3ccc(Cl)cc3)cc(N3CCC(C(N)=O)CC3)c2c1 [1-[2-(4-Chlorophenyl)-6-methyl-4-quinolinyl]-4-piperidinecarboxamide],460 nM,–,–,–,–
"CCN(CC)C(=O)C1CCN(c2cc(-c3ccc(Cl)cc3)nc3ccccc23)CC1 [1-[2-(4-Chlorophenyl)-4-quinolinyl]-N,N-diethyl-4-piperidinecarboxamide]",500 nM,–,–,–,–
NC(=O)C1CCN(c2cc(-c3ccc(Cl)cc3)nc3ccc(Cl)cc23)CC1 [1-[6-chloro-2-(4-chlorophenyl)-4-quinolinyl]-4-piperidinecarboxamide],205 nM,–,–,–,–
Cc1ccc(-c2cc(N3CCC(C(N)=O)CC3)c3cc(F)ccc3n2)cc1 [1-[6-Fluoro-2-(4-methylphenyl)-4-quinolinyl]-4-piperidinecarboxamide],5.4 nM,88 mg/kg,> 1000 mg/kg,–,–
CNC(=O)C1CCN(c2cc(-c3ccc(F)cc3)nc3ccc(Cl)cc23)CC1 [1-[6-Chloro-2-(4-fluorophenyl)-4-quinolinyl]-N-methyl-4-piperidinecarboxamide],10.5 nM,37 mg/kg,> 1000 mg/kg,–,–
Cc1ccc2nc(-c3ccc(F)cc3)cc(N3CCC(C(N)=O)CC3)c2c1 [1-[2-(4-fluorophenyl)-6-methyl-4-quinolinyl]-4-piperidinecarboxamide],34 nM,> 100 mg/kg,> 1000 mg/kg,–,–
CCCNC(=O)C1CCN(c2cc(-c3ccccc3)nc3ccc(F)cc23)CC1 [1-[6-Fluoro-2-phenyl-4-quinolinyl]-N-propyl-4-piperidinecarboxamide],13 nM,> 100 mg/kg,> 1000 mg/kg,–,–
CCNC(=O)C1CCN(c2cc(-c3ccccc3)nc3ccc(F)cc23)CC1 [N-Ethyl-1-[6-fluoro-2-phenyl-4-quinolinyl]-4-piperidinecarboxamide],2.8 nM,58 mg/kg,> 1000 mg/kg,–,–
"CNC1=Nc2ccc(Cl)cc2C(c2ccccc2)=[N+]([O-])C1 [Chlordiazepoxide, reference compound]",–,–,–,3.9 mg/kg,–
CNC(=O)C1CCN(c2cc(-c3ccc(Cl)cc3)nc3ccccc23)CC1 [1-[2-(4-Chlorophenyl)-4-quinolinyl]-N-methyl-4-piperidinecarboxamide],19.5 nM,9 mg/kg,> 1000 mg/kg,–,–
Cc1ccc(-c2cc(N3CCC(C(N)=O)CC3)c3cc(C)ccc3n2)cc1 [1-[6-Methyl-2-(4-methylphenyl)-4-quinolinyl]-4-piperidinecarboxamide],290 nM,–,–,–,–
"CCN(CC)CCN1C(=O)CN=C(c2ccccc2F)c2cc(Cl)ccc21 [Flurazepam, reference compound]",–,–,–,–,15.6 nM
"CN(C)C(=O)C1CCN(c2cc(-c3ccc(Cl)cc3)nc3ccccc23)CC1 [1-[2-(4-Chlorophenyl)-4-quinolinyl]-N,N-dimethyl-4-piperidinecarboxamide]",80 nM,24 mg/kg,> 1000 mg/kg,–,–
Cc1ccc(-c2cc(N3CCC(C(N)=O)CC3)c3ccccc3n2)cc1 [1-[2-(4-methylphenyl)-4-quinolinyl]-4-piperidinecarboxamide],1.7 nM,37 mg/kg,> 1000 mg/kg,–,–
CCNC(=O)C1CCN(c2cc(-c3ccc(F)cc3)nc3ccc(F)cc23)CC1 [1-Ethyl-1-[6-fluoro-2-(4-fluorophenyl)-4-quinolinyl]-4-piperidinecarboxamide],3 nM,22 mg/kg,> 1000 mg/kg,–,–
"CN1C(=O)CN=C(c2ccccc2)c2cc(Cl)ccc21 [Diazepam, reference compound]",–,–,–,1 mg/kg,–
NC(=O)C1CCN(c2cc(-c3ccccc3)nc3ccc(Cl)cc23)CC1 [1-[6-Chloro-2-phenyl-4-quinolinyl]-4-piperidinecarboxamide],96 nM,50 mg/kg,> 1000 mg/kg,–,–
NC(=O)C1CCN(c2cc(-c3ccc(F)cc3)nc3ccccc23)CC1 [1-[2-(4-Fluorophenyl)-4-quinolinyl]-4-piperidinecarboxamide],1.1 nM,> 100 mg/kg,> 1000 mg/kg,–,–
Cc1ccc2nc(-c3ccccc3)cc(N3CCC(C(N)=O)CC3)c2c1 [1-[6-Methyl-2-phenyl-4-quinolinyl]-4-piperidinecarboxamide],28 nM,90 mg/kg,> 1000 mg/kg,–,–
CNC(=O)C1CCN(c2cc(-c3ccc(Cl)cc3)nc3ccc(F)cc23)CC1 [1-[6-Fluoro-2-(4-chlorophenyl)-4-quinolinyl]-N-methyl-4-piperidinecarboxamide],70 nM,> 300 mg/kg,> 1000 mg/kg,–,–
CCNC(=O)C1CCN(c2cc(-c3ccc(Cl)cc3)nc3ccccc23)CC1 [1-[2-(4-chlorophenyl)-4-quinolinyl]-N-ethyl-4-piperidinecarboxamide],9 nM,26 mg/kg,> 1000 mg/kg,–,–
NC(=O)C1CCN(c2cc(-c3ccc(Cl)cc3)nc3ccccc23)CC1 [1-[2-(4-chlorophenyl)-4-quinolinyl]-4-piperidinecarboxamide],29 nM,24 mg/kg,> 1000 mg/kg,–,–
"CCC1(c2ccccc2)C(=O)NC(=O)NC1=O [Sodium Phenobarbital, reference compound]",–,–,–,19 mg/kg,–
NC(=O)C1CCN(c2cc(-c3ccc(F)cc3)nc3ccc(F)cc23)CC1 [1-[6-Fluoro-2-(4-fluorophenyl)-4-quinolinyl]-4-piperidinecarboxamide],1 nM,5 mg/kg,> 1000 mg/kg,–,–
NC(=O)C1CCN(c2cc(-c3ccccc3)nc3ccc(F)cc23)CC1 [1-[6-Fluoro-2-phenyl-4-quinolinyl]-4-piperidinecarboxamide],3.6 nM,120 mg/kg,> 1000 mg/kg,–,–
